In PMC9227305, “Photoinduced Synthesis of Methylated Marine Cyclopeptide Galaxamide Analogs with Isoindolinone as Anticancer Agents” (Marine Drugs, 2022):
*1 amine or outer side, *2 acyl side, *3 side chain or, on linkers, in order; H or OH if unused. Where a SMILES comes first, the peptide text is derived from it. [ ]: non-standard residue; d: D form. X1 = O=C1c2ccccc2[C@@](O)(CN(Cc2ccccc2)[*:1])N1CC(=O)[*:2]; NMeL = CN[C@@H](CC(C)C)C(=O)O

Columns and labels:
HepG-2 cells [1] = test: cells; details: compound 8 vs compound 4
Excerpt: (§1) The antitumor activity of the prepared cyclic peptides against human hepatocellular carcinoma cells (HepG-2), human cervical cancer cell lines (HeLa) and human breast cancer cells (MDA-MB-231) was examined by MMT assay, and the mouse fibroblast L929 cells were used as the model cells to evaluate the toxicity of cyclopeptides to normal cell lines. Due to the absence of an authentic standard, taxol was chosen as a control because it is a widely used chemotherapeutic drug for the treatment of various cancers, including liver cancer.
(§2) Samples were dissolved in DMSO and diluted into different concentrations ([…], 18.75, 25, 37.5, 50, 75, 100 and 250 μM) and stored at 4 °C. Cells in the logarithmic growth phase were digested with trypsin and then seeded in 96-well plates at a density of 2 × 10^4 cells/well in 100 μL of culture medium. The cells were treated with different concentrations of the tested compound, and a blank control group without the drug was also set up. Six wells were repeated for each dose. After 48 h of co-incubation, MTT solution (100 μL, 0.5 mg/mL) was added, followed by incubation for another 4 h. After discarding the supernatant, 100 μL of DMSO was added per well, and the absorbance (OD) values were measured at 490 nm using an enzyme marker. Cell viability was calculated by the formula: Cell viability (%) = As/Ab × 100% (where As is the absorbance value of the experimental group and Ab is the absorbance value of the blank group). The obtained data were processed using SPSS19 software to obtain IC50 values.

L929 cells = test: cells; details: 48 h
Excerpt: as §1, §2

HepG-2 cells [2] = test: Cell cycle analysis by PI flow cytometry; assay type: cell-based, human
Method: The four phases in the cell cycle, mitosis (M), gap 1 (G1), synthesis of DNA (S), and gap 2 (G2), can be analysized by a commonly used dye, propidium iodide (PI), which could intercalate into the major groove of double-stranded DNA and produce a highly fluorescent adduct that can be detected due to its broad emission around 600 nm. In this research, the drug-treated tumor cells were fixed overnight at 4 °C with 70% ice-cold ethanol and then treated with Rnase A/PI for 60 min at 37 °C and analyzed by flow cytometry.
HepG-2 cells were inoculated in 6-well plates and incubated for 24 h. Then, different concentrations of compound 8 were added to the wells and incubated for the required time. The collected cells in the experimental and control groups were digested with trypsin, centrifuged (1000 r/min, 5 min), resuspended in PBS and fixed by 70% ice ethanol (3 mL) at −20 °C for 24 h. Then, cells were washed twice with PBS and resuspended in PBS (0.9 mL), then treated with 100 µL RNase (100 µg/mL) for 30 min at 37 °C. After centrifuging the mixture for 5 min, the cells were resuspended in 50 µg/mL PBS and stained with 600 µL of PI solution (Beyotime Biotechnology, Shanghai, China) for 60 min at 4 °C to stain. Finally, the physical properties of individual cells at different mitotic stages were analyzed by flow cytometry (BD Accuri C6, BD Biosciences, Franklin Lakes, NJ, USA).

HepG-2 cells [3] = test: Intracellular Ca2+ level, Fluo-3 AM flow cytometry; assay type: cell-based, human; details: 24 h treatment
Excerpt: It has been clear that subtle changes in Ca^2+ concentration, such as intracellular calcium overload, can regulate and trigger apoptosis by inducing the production of mitochondrial trifunctional protein [24]. In this paper, we tried to study the influence of our prepared cyclic peptide on the intracellular calcium ion concentration. The cell-permeable fluorescent dye, Fluo-3 AM, is the most commonly used indicator to detect intracellular calcium ion concentration. […] Based on this principle, intracellular calcium ion concentrations can be detected by flow cytometry. In this paper, HepG-2 cells treated with solvent and the desired concentration of compound 8 for 24 h were collected and co-incubated with Fluo-3 AM. After loading, intracellular Ca^2+ levels were measured by flow cytometry.
Cells incubated in 6-well plates were treated in a similar way as mentioned above, and then 100 µL of Fluo-3 AM (5 µM) was added and incubated for 1 h at 37 °C away from light. After rewashing the cells, the suspended precipitate in PBS was checked by flow cytometry (excitation at 488 nm and emission at 525 nm).

MDM2 = test: Western blot of MDM2 level; assay type: cell-based, human; details: HepG-2 cells, 48 h, increasing drug concentration
Excerpt: (§3) The p53 tumor suppressor plays a key role in preventing tumor development. In cancers retaining wild-type p53, the function of p53 can be suppressed by a variety of factors, and the murine double minute 2 (MDM2) protein is an important endogenous cellular inhibitor of p53 [29]. Therefore, inhibiting or blocking MDM2 protein should be an efficient strategy for the development of an antitumor agent. Actually, various MDM2 inhibitors have been studied and screened in recent years, including small molecules and polypeptides. […] Considering that the isoindolinone fragment is always present in the structure of MDM2 inhibitors and plays an important role in binding to the target protein, we tried to detect the MDM2 and p53 protein levels by Western blotting to assess the inhibiting ability of cyclic peptides containing isoindolinone fragments to MDM2 oncoprotein.
(§4) HepG-2 cells (5 × 10^6 cells) in the medium were treated with different concentrations of compounds for the required time and were washed twice with ice-cold PBS. The cells were scraped into cell lysate buffer containing phenylmethanesulfonyl fluoride (PMSF) and transferred to a 1.5 mL centrifuge tube, then lysed for 20 min at 4 °C. After centrifuging (12,000 r/min) for 20 min, the supernatant was collected and measured using the BCA Protein Assay Kit (Beyotime Biotechnology Co. Ltd., Shanghai, China)). […]

p53 = test: Western blot of p53 level; assay type: cell-based, human; details: HepG-2 cells, 48 h, increasing drug concentration
Excerpt: as §3, §4

CC(C)C[C@@H]1NC(=O)CN2C(=O)c3ccccc3[C@@]2(O)CN(Cc2ccccc2)C(=O)[C@H](CC(C)C)NC(=O)[C@H](CC(C)C)N(C)C(=O)[C@H](CC(C)C)NC(=O)[C@H](CC(C)C)NC1=O [Compound 8, 3-Hydroxy-isoindolinone-cyclo-Gly-Leu-N-Me-Leu-Leu-Leu-Leu] (cyclo(LL[NMeL]L[X1]L))
antitumor activity relative to compound 4 (HepG-2 cells [1]): eight times stronger
IC50 (L929 cells): > 400 µM
4N (G2/M phase) cells (HepG-2 cells [2]; 5.5 μM, 48 h): 12.0%
4N (G2/M phase) cells (HepG-2 cells [2]; 11 μM, 12 h): 10.1%
4N (G2/M phase) cells (HepG-2 cells [2]; 11 μM, 24 h): 17.4%
4N (G2/M phase) cells (HepG-2 cells [2]; 11 μM, 48 h): 25.8%
4N (G2/M phase) cells (HepG-2 cells [2]; 22 μM, 48 h): 33.0%
Fluo-3 fluorescence intensity (intracellular Ca2+) relative to control group (HepG-2 cells [3]): 4.83 times
level of MDM2 (MDM2): decreased gradually
p53 protein expression (p53): increase
